Measurements: patent US20050003008A1, “Method of in vivo drug targeting to solid tumors via acoustically triggered drug delivery in polymeric micelles” (priority 1997, published 2005)
Converted amounts (≈) assume the structure as drawn.

How the values were obtained:
[1] = Effects of PLURONIC micelles and ultrasound on drug uptake and cytotoxicity, other drugs; type: cell-based
Description: It is important to note that the effects of PLURONIC micelles and ultrasound on drug uptake and cytotoxicity described above for DOX were also observed for another anthracycline drug, Ruboxyl. […] This implies that the new modality of drug delivery described here will have general applicability to a wide variety of drugs and drug delivery systems.

[2] = test system: drug-sensitive ovarian carcinoma A2780 cells; test: Growth inhibition of drug-sensitive ovarian carcinoma cells (IC75); type: cell-based
Experimental: (§1) It should be noted that because of the cytostatic action of micelles, the inhibitory concentration IC50 values for drugs become meaningless; for example, upon 3-hour incubation with a drug-free 10% P-105 micelles followed by three days culturing in a PLURONIC-free RPMI 1640 medium, the growth inhibition of both sensitive and resistant cells exceeded 50%. […] For cases like this it would be more informative to compare, e.g., IC75 values.

[3] = test system: MDR ovarian carcinoma A2780/ADR cells; test: Growth inhibition / cell kill of MDR ovarian carcinoma cells with Pluronic and ultrasound; type: cell-based; settings: for IC75: A2780/ADR
Experimental: as §1
As an example, when the MDR cell were incubated with drug-free 10% PLURONIC micelles for three hours, upon which they were sonicated for 10 minutes by 69-kHz ultrasound at 3.2 W/cm^2 and cultured for 72 hours, the growth of the MDR cell dropped to forty percent of the unsonicated non-incubated control.
For the MDR cells, PLURONIC and ultrasound effects are especially important. At the absence of micelles, only about forty percent of the MDR cells are killed at DOX or Rb concentrations as high as 100 μg/ml. However, when the MDR cells were incubated with 5 μg/ml DOX for three hours in the presence of a unimeric Pluronic solution followed by a 10-minute sonication by 69-kHz ultrasound at 3.2 W/cm^2, sixty six percent of the cells died upon subsequent cell culturing vs. fifty three percent without ultrasound; only fifteen percent of the MDR cells die upon incubation with 5 μg/ml DOX without Pluronic and ultrasound treatment.
Ultrasound-induced increased intracellular uptake was accompanied by a dramatic sensitization of the MDR cells to the action of DOX (FIG. 10). […] Even without ultrasound, IC50 of DOX in the MDR ovarian carcinoma cells dropped 50-fold in the presence of PLURONIC unimers and micelles.

HL-60 cells [4] = test: Intracellular drug uptake by HL-60 cells (lysate fluorescence); type: cell-based
Experimental: Intracellular uptake of doxorubicin and ruboxyl was measured using a fluorescence technique wherein compounds were excited at 488 nm and technical emission spectra were recorded at 510-700 nm. Two sets of samples were studied, incubated, and sonicated. Ultrasound was generated by a Sonicor SC100 sonication bath operating at 70 kHz and 37° C. Power density was controlled by adjusting the input voltage and was measured with a hydrophone.
For the first set of samples, the cells were incubated at 37° C. with doxorubicin or ruboxyl, which were either dissolved in the RPMI medium or PBS, or the drugs were solubilized in PLURONIC P-105 solutions of various concentrations. For the second set of samples, the cells were sonicated by 70 kHz ultrasound at 37° C. to assess the effect of ultrasound on the drug uptake from molecular and micellar solutions. After being incubated/sonicated with and without the drug, the cells were centrifuged, washed twice with cold PBS, resuspended in PBS, and the fluorescence spectra of cell suspensions were recorded. The fluorescence intensity of the untreated cells was subtracted from that of the drug-treated cells. Because drug fluorescence within the cells was substantially quenched, drug uptake was quantified by lysing the cells by incubating them with 1 wt % SDS solution for 1-2 hours at 37° C. This process transferred the drug from cellular components to SDS micelles. […] Upon the completion of cell lysis, fluorescence spectra of the lysates were recorded. To quantify the concentration of lysed cells, cell lysates were filtered through 0.2 μm filters, and their optical densities were measured by protein absorbance at 280 nm (OD 280 nm). […] The fluorescence intensity of lysates ws normalized by OD 280 nm.

DNA = test: Drug intercalation into DNA (fluorescence drop); type: binding; settings: drug introduced from micellar solution
Description: Ruboxyl and doxorubicin encapsulation in PLURONIC micelles restricted not only drug interaction with the cells, but also drug interaction with cell components, e.g. DNA.

[5] = Ultrasound-triggered drug release from PLURONIC P-105 micelles; type: physicochemical
Description: The measurements of the degree of drug release are based on the decrease of DOX fluorescence intensity when DOX is transferred from the hydrophobic environment of micelle cores to the aqueous environment. An argon-ion laser beam of 488 nm was directed to a drug-containing cuvette to excite fluorescence. The emissions were collected using a fiber optic collector and filtered to remove the excitation wavelength. The emissions were quantified using a photodetector, digitized with a 12-bit A/D converter, and stored in a Macintosh computer for further analysis.
Digitized fluorescence intensity data were analyzed to calculate the percent of the drug release from micelles. A fluorescence intensity of a 10 μg/ml DOX solution in PBS (IPBS) was measured first; the PBS solution was then carefully sucked out of the cuvette and replaced with a 10 μg/ml DOX solution in 10% PLURONIC P-105 micelles. Fluorescence of this solution (Imic) was measured, and a difference Imic−IPBS was assumed to correspond to a […] drug release from micelles. Then, ultrasound was switched on, and DOX fluorescence under sonication (Ius) was recorded; if sonication induced partial drug release from micelles into the aqueous environment, Ius was lower than Imic; the “ultrasound on”-“ultrasound off” cycles were repeated several times to check reproducibility. The length of each ultrasound exposure cycle was 1 to 2 minutes. […] The degree of drug release (DDR) was calculated as follows: DDR={[Imic−Ius]/[Imic−IPBS]}×100

[6] = test system: ovarian carcinoma drug-sensitive A2780 cells; test: Intracellular DOX uptake by A2780 cells under 1 MHz ultrasound (flow cytometry); type: cell-based
Experimental: Fluorescence histograms of the A2780 cells incubated or sonicated in the presence of DOX are shown. The initial concentration of cells ranged from 3×10^6 to 5×10^6 cells/ml as determined using a hemacytometer. After exposure to DOX (10 μg/ml to 50 μg/ml in various experiments) and ultrasound (15 to 30 s), cells were counted again to measure the degree of sonolysis, upon which they were centrifuged, washed with PBS, fixed with a 3% formalin or 2.5% glutaraldehide, and analyzed by flow cytometry. Fluorescence histograms were recorded with a FACScan flow cytometer (Beckton Dickinson) and analyzed using CellQuest software supplied by the manufacturer. A minimum of 10,000 events was analyzed to generate each histogram.
The experiments on the effect of ultrasound on the intracellular DOX uptake with and without micelles were always conducted in parallel, at the same day and using the same batch of the cells.

A2780 cells = test: Survival of ovarian carcinoma-bearing mice; type: in vivo; settings: DOX 3 mg/kg intraperitoneally in PLURONIC P-105 micelles, sonication one hour after injection
Experimental: A2780 cells (1×10^6) were inoculated intraperitoneally. DOX in PBS or PLURONIC P-105 micelles was injected intraperitoneally the next day after cell inoculation. Sonication of the abdominal region was performed one hour after DOX injection.

[7] = test system: MDR ovarian carcinoma A2780/ADR cells; test: Growth inhibition / cell kill of MDR ovarian carcinoma cells with Pluronic and ultrasound; type: cell-based; settings: 10-min sonication by 67-kHz ultrasound
HL-60 cells [8] = settings: combination of micellar delivery and ultrasonication; cited from earlier work
A2780 tumor = test: In vivo DOX uptake by sonicated A2780 tumor
[9] = Drug partitioning between PLURONIC micelles and polystyrene latex particles; type: physicochemical
Experimental: To study solute release from PLURONIC micelles, the partitioning of the solute between the micelles and the surface of polystyrene latex particles was investigated. A spin probe, DSTA, or the drug, ruboxyl, was solubilized in PLURONIC P-105 solutions of various concentrations. A suspension of polystyrene latex particles (average diameter 0.9 μm, 50 μl/ml) was incubated with 1 ml of DSTA or ruboxyl solution in PLURONIC P-105, and depletion of the probe in the supernatant was measured by the EPR (for DSTA) or fluorescence (for ruboxyl) technique upon polystyrene particle separation.
An important question pertinent to this research was how tightly the solubilized drug was associated with PLURONIC micelles. To investigate this problem, ruboxyl adsorption on polystyrene latex particles was measured from molecular solutions of ruboxyl in PBS and from micellar PLURONIC solutions. Ruboxyl readily adsorbs onto polystyrene surfaces. About 90% of the drug is transferred onto polystyrene surface from ruboxyl solutions in PBS. PLURONIC micelles, however, compete for ruboxyl with polystyrene surfaces; only about 40% of ruboxyl solubilized in PLURONIC micelles (20 wt % solutions of PLURONIC P-105) is transferred onto the polystyrene surface, the remainder being retained within the PLURONIC micelles.

[10] = test system: leukosis, La, P-388, and L-1210; solid tumors; settings: P-388, L-1210 in mice, solid tumors in rats; cited from earlier work
[11] = test system: breast and colon carcinomas and bone sarcoma; settings: cited from earlier work
[12] = absence of micelles, drug concentration 100 μg/ml
[13] = PLURONIC concentration 0.1%, below CMC
[14] = drug sequestered in dense PLURONIC P-105 micelles vs free drug

## CC(=O)O[C@H]1C(=O)[C@@]2(C)[C@H]([C@H](OC(=O)c3ccccc3)[C@]3(O)C[C@H](OC(=O)[C@H](O)[C@@H](NC(=O)c4ccccc4)c4ccccc4)C(C)=C1C3(C)C)[C@]1(OC(C)=O)CO[C@@H]1C[C@@H]2O [taxol]
[1]
  effects of PLURONIC micelles and ultrasound on drug uptake and cytotoxicity: promising results

## COc1cccc2c1C(=O)c1c(O)c3c(c(O)c1C2=O)C[C@@](O)(C(=O)CO)C[C@@H]3O[C@H]1C[C@H](N)[C@H](O)[C@H](C)O1 [DOX, Doxorubicin]
[2]; A2780, P-105 0.1% (unimers)
  IC75: 1.3 µg/mL (≈ 2.39 µM)
[2]; A2780, P-105 10% (micelles)
  IC75: 1.3 µg/mL (≈ 2.39 µM)
[2]; A2780, RPMI (no Pluronic)
  IC75: 1.3 µg/mL (≈ 2.39 µM)
[3]; 5 μg/ml DOX three hours in unimeric Pluronic solution, 10-minute sonication 69-kHz 3.2 W/cm^2
  MDR cells died: sixty six
[3]; 5 μg/ml DOX three hours in unimeric Pluronic solution, without ultrasound
  MDR cells died: fifty three
[3]; 5 μg/ml DOX without Pluronic and ultrasound treatment
  MDR cells died: fifteen
[3]; P-105 0.1% (unimers)
  IC75: 12 ± 2 µg/mL (≈ 22.1 µM)
[3]; P-105 10% (micelles)
  IC75: 16 ± 2 µg/mL (≈ 29.4 µM)
[3]; RPMI (no Pluronic)
  IC75: >100 µg/mL
[3]; PLURONIC micelle and ultrasound, DOX concentration 0.78 μg/ml
  MDR cells killed: 100%
[3]; [12]
  MDR cells killed: about forty
[3]; conventional medium, DOX 50 μg/ml
  fraction of MDR cells highly resistant to DOX: about 55%
[3]; in the presence of PLURONIC micelles
  fraction of MDR cells highly resistant to DOX: completely eliminated
[3]; presence of PLURONIC unimers and micelles, without ultrasound
  drop of IC50 of DOX: 50 fold
HL-60 cells [4]; [13]
  drug uptake by HL-60 cells: somewhat enhanced
HL-60 cells [4]; [14]
  drug uptake by HL-60 cells: substantial decrease
DNA
  drug-DNA interaction: lower drug-DNA interaction
[5]; 1.0-MHz ultrasound
  power density required for 10% DOX release: 7.2 W/cm^2
[5]; 20-kHz ultrasound
  power density required for 10% DOX release: 0.058 W/cm^2
[5]; 67-kHz ultrasound
  power density required for 10% DOX release: 2.8 W/cm^2
[6]; sonicated 15 s vs unsonicated incubated 30 min, same DOX concentration
  DOX uptake, sonicated vs unsonicated cells: significantly higher
[6]; sonication at 1 MHz, from PBS or RPMI 1640
  intracellular uptake of DOX: substantially increased
A2780 cells
  life span vs conventional drug introduction: much longer
[7]
  fraction of MDR cells highly resistant to DOX: about 30%
HL-60 cells [8]
  effective drug dose: substantial decrease
A2780 tumor; 3-MHz ultrasound
  DOX uptake by other organs under ultrasound: not affected
A2780 tumor; DOX 6 mg/kg intravenously, 1 MHz or 3 MHz ultrasound 1.7 W/cm2
  DOX uptake by cells of the sonicated tumor: dramatically enhanced

## COc1cccc2c1C(=O)c1c(O)c3c(c(O)c1C2=O)C[C@@](O)(/C(C)=N/N=C1CC(C)(C)N(O)C(C)(C)C1)C[C@@H]3O[C@H]1C[C@H](N)[C@H](O)[C@H](C)O1.Cl [Rb, ruboxyl]
[2]; A2780, P-105 10% (micelles)
  IC75: 0.9 µg/mL
[2]; A2780, RPMI (no Pluronic)
  IC75: 1.5 µg/mL
[3]; P-105 10% (micelles)
  IC75: 17 ± 3 µg/mL
[3]; RPMI (no Pluronic)
  IC75: >100 µg/mL
[3]; [12]
  MDR cells killed: about forty
[9]; from ruboxyl solutions in PBS
  drug transferred onto polystyrene surface: About 90%
[9]; solubilized in PLURONIC micelles (20 wt % PLURONIC P-105)
  drug transferred onto polystyrene surface: about 40%
HL-60 cells [4]; [13]
  drug uptake by HL-60 cells: somewhat enhanced
HL-60 cells [4]; [14]
  drug uptake by HL-60 cells: substantial decrease
DNA
  drug-DNA interaction: lower drug-DNA interaction
[1]
  effects of PLURONIC micelles and ultrasound on drug uptake and cytotoxicity: also observed
[10]
  anti-tumor activity: high
[11]; breast and colon carcinomas and bone sarcoma
  clinical efficacy: effective
[11]; clinical trials
  cardiotoxicity: reduced
